Source: doi:10.1101/2024.06.10.598330v1 (biorxiv, 2024)

How the values were obtained:
[1] = system: 'Concord' ortholog of 4g02123; test: MTase-Glo luminescence methyltransferase assay; type: biochemical, Vitis labrusca; settings: 20 μM SAM, pH 8.0, 37 °C
Vv4g02123 = settings: 20 μM SAM, pH 8.0, 37 °C; substrate inhibition fit
Vv4g02169 = target: T1, Vv4g02169 (Vitis vinifera, UniProt D7SNV7); test: MTase-Glo luminescence methyltransferase assay; type: biochemical; settings: 150 μM SAM, pH 8.0, 37 °C
T1 sequence (D7SNV7 1-364): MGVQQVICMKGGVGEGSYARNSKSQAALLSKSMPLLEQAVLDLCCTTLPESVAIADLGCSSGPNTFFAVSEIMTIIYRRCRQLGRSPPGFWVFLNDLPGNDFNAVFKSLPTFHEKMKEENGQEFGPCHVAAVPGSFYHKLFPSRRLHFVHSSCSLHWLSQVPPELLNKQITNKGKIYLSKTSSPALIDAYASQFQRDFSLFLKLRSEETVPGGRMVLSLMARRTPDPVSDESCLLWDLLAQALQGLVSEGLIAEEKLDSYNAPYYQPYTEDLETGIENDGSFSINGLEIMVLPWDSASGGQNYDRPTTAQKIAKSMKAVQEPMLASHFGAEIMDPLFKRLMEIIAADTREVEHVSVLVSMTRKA

Row | Compound | Km [1] [µM] | Km (Vv4g02123) [µM] | Km (Vv4g02169) [µM] | Km ([1]; substrate inhibition fit) [µM]
1 | CNc1ccccc1C(=O)O [N-methyl AA] | 120 | 12 | – | –
2 | Nc1ccccc1C(=O)O [anthranilate] | 47 | – | 160 | –
3 | O=C(O)c1ccccc1 [benzoic acid] | 23 | – | – | –
4 | O=C(O)c1ccccc1O [salicylic acid] | – | – | – | 3.8
